Literature values in patent US11804282B1, “Systems and methods for drug clustering” (nference, Inc., priority 2018, dated 2023).

Assays:
VEGFR2 protein = VEGFR2 protein (Homo sapiens, UniProt P35968); details: poly-protein screening (FIG. 4 inset)
[1] = system: distinct purified proteins; details: proteome-wide screening data (FIG. 3 inset)

Chain of VEGFR2 protein (P35968 20-1356): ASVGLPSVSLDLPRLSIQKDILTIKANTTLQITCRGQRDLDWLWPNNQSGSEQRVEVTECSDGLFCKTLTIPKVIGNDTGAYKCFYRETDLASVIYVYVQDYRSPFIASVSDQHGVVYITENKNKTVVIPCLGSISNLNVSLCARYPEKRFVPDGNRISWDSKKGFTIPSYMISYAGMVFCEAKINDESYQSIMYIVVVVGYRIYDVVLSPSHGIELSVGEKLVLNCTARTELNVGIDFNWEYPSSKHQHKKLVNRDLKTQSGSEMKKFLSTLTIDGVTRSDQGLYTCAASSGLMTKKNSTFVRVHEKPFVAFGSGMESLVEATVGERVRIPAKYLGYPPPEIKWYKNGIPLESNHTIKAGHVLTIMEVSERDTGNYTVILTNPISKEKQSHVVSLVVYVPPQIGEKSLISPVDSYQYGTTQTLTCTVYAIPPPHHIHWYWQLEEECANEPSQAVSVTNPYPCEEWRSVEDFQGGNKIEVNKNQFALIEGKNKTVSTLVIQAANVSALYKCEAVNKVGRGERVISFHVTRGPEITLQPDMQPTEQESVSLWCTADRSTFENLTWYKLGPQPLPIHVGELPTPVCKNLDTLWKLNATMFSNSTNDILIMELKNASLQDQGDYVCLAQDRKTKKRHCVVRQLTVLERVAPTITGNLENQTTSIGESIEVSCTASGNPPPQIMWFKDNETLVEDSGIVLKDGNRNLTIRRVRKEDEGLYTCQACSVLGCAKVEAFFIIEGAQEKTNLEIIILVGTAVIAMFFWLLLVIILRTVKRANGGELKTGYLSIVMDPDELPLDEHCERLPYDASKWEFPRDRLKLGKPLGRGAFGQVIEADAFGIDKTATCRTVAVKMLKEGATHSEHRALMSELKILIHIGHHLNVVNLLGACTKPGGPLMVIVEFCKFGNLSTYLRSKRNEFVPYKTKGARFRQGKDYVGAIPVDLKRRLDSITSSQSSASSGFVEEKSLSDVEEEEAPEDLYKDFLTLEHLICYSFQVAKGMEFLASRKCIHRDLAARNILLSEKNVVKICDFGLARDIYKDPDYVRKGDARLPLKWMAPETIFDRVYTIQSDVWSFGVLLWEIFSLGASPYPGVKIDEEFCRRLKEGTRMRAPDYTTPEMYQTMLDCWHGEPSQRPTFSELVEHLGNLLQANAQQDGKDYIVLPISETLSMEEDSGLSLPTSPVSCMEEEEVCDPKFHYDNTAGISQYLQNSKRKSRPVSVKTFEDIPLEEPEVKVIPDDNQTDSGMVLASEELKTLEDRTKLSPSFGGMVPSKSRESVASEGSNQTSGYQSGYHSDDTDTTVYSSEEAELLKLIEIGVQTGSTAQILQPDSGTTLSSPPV

SMILES: Cc1ccc(NC(=O)c2ccc(CN3CCN(C)CC3)cc2)cc1Nc1nccc(-c2cccnc2)n1 [imatinib]
- affinity to the VEGFR2 protein (VEGFR2 protein): almost no affinity
- number of distinct purified proteins bound [1]: less than 50 distinct purified proteins
